Reference: patent US20050119301A1, “Treatment of restenosis” (priority 2001, published 2005)

Assays:
[1] = system: human LDL; assay: Prevention of tocopherol-mediated peroxidation (anti-TMP test); format: biochemical; conditions: 10 mM
Protocol: The test indirectly assesses the ability of a compound to synergise with a-tocopherol in human LDL undergoing mild and chemically controlled oxidation. Oxidation is measured by the accumulation of cholesterol ester hydroperoxides at a time point corresponding to 20% consumption of endogenous a-tocopherol.
Briefly, ascorbate and ubiquinol-10-free LDL (1 mM in apoB) was supplemented with an aliquot of a stock solution of the compound to be tested. The mixture was incubated at 37° C. for 10 min and subsequently oxidized at 37° C. with a low flux of water-soluble ROO generated from AAPH (4 mM). The time-dependent consumption of LDL a-tocopherol and accumulation of cholesteryllinolate hydroperoxide (Ch18:2-OOH) were monitored by HPLC with electrochemical and post-column chemiluminescence detection, respectively. The effectiveness of an antioxidant, assigned as its anti-TMP index (redox index), was defined as the relative amounts of Ch18:2-OOH formed with versus without the added antioxidant measured after 20% consumption of the endogenous a-tocopherol in the control sample (ie. in the absence in the antioxidant). […] Butylated hydroxytoluene (BHT, 10 mM) was used as a positive control.

[2] = system: horseradish peroxidase (HRP) plus hydrogen peroxide (H2O2); assay: Peroxidase-induced (HRP/H2O2) oxidation of linoleate; format: biochemical, horse radish; parameters: dose or concentration left out as unconfirmed
Source text: The test is similar to the peroxyl scavenging described in section 4.5 above, except that horseradish peroxidase (HRP) plus hydrogen peroxide (H2O2), were used instead of the peroxyl radical generator. Increased level of heme is considered as a potential risk factor for atherosclerosis, and heme-containing proteins may be involved in the oxidative modification of LDL. In the presence of H2O2, heme proteins give rise to a powerful oxidant (referred to as compound I) that can oxidatively modify lipids, including those in LDL. We therefore tested the ability of the isoflavone to inhibit such lipid oxidation using horse radish peroxidase as the model heme protein. HRP/H2O2-induced oxidation of linoleate was as described principally by Witting et al (1997) by replacing LDL with linoleate. Linoleate stock was added to PBS at 37° C. to give a final concentration of 300 mM and oxidized by HRP (40 U/mL)/H2O2 (2 mM) in the absence and presence of either 10 mM of Cpd. 7, Cpd. 8 or Cpd. 12, or 25 mM BHT (positive control). Formation of linoleate hydroperoxide was monitored by UV 234 nm using the Perkin Elmer's UV/Vis Lambda 40 spectrophotometer. The test was performed twice as single analysis. An appropriate concentration of alcohol (ethanol and isopropanol; 0.13% -0.2% v/v) was included in the respective control samples.

[3] = molecular target: T1, Soybean 15-lipoxygenase (SLO) (Glycine max, UniProt P08170); assay: Inhibition of lipoxygenase, SLO-induced oxidation of linoleate; format: biochemical; parameters: dose or concentration left out as unconfirmed
T1 construct: purchased Sigma, St. Louis, Mo
T1 sequence (P08170 1-839): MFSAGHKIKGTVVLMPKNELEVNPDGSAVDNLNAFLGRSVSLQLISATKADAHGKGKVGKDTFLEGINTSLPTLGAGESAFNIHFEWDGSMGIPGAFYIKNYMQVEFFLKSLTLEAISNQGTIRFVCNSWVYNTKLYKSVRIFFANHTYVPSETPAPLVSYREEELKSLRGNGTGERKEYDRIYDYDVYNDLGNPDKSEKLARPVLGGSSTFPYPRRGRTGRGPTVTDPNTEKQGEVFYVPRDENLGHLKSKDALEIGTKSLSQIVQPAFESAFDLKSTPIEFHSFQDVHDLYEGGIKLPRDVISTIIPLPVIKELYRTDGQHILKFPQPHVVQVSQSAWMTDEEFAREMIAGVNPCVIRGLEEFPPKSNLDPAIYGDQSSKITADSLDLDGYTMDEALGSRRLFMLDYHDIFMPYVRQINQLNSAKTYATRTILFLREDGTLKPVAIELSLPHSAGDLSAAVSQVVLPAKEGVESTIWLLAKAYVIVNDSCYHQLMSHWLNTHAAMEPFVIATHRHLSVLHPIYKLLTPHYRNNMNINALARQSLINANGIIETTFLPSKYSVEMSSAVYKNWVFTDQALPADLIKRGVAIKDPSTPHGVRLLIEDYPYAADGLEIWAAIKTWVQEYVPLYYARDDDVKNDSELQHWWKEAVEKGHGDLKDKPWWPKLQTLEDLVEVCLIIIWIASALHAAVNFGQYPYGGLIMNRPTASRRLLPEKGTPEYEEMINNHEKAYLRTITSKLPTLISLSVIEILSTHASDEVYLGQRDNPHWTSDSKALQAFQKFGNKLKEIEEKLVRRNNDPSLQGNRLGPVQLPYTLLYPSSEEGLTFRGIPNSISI
Protocol: Soybean 15-lipoxygenase (SLO) is a suitable model of 15-lipoxygenase and was therefore used to assess the ability of Cpd. 7, Cpd. 8 and Cpd. 12 to inhibit this enzyme. SLO-induced oxidation of linoleate was performed as described previously (Upston et al., 1996). Briefly, linoleate (100 mM) in PBS was oxidized by SLO (60 U/mL) in the absence and presence of 10 mM Cpd. 7, Cpd. 8 or Cpd. 12, or 100 mM eicosatetraynoic acid (ETYA, positive control). Formation of linoleate hydroperoxide was monitored by UV 234 nm using the Perkin Elmer's UV/Vis Lambda 40 spectrophotomneter. The test was performed twice as single analysis. An appropriate concentration of alcohol (ethanol and isopropanol; 0.13% -0.2% v/v) was included in the respective control samples.

[4] = system: LDL receptor; assay: LDL receptor expression on HepG2 cells, [125I]-LDL specific binding; format: cell-based, human; conditions: 10 μM; for concentration dependence of LDL receptor expression: 50 nM, 500 nM; for LDL receptor expression, Experiment 3 / LDL receptor expression, Experiment 2 / LDL receptor expression, Experiment 1: 48 hours; for LDL receptor expression, Experiment 3: control 130 ± 18; for LDL receptor expression, Experiment 2: control 261 ± 57; for LDL receptor expression, Experiment 1: control 283 ± 32

SMILES	LDL protective action in the presence of Vitamin E (in words) [1]	inhibition of linoleic acid oxidation by HRP/H2O2 compound I (in words) [2]	inhibition of soybean 15-lipoxygenase (in words) [3]	concentration dependence of LDL receptor expression [4]	LDL receptor expression, Experiment 3 [4]	LDL receptor expression, Experiment 2 [4]	LDL receptor expression, Experiment 1 [4]
Oc1ccc(C2COc3cc(O)ccc3C2O)cc1 (centres unmarked) [Cpd. 8]	low levels of activity	able to inhibit linoleic acid oxidation by compound I as effectively as 25 mM BHT	neither Cpd. 7 nor Cpd. 8 were able to inhibit SLO	no clear concentration-dependent effect	143 ± 34 fmol LDL receptors per mg cell protein	273 ± 57 fmol LDL receptors per mg cell protein	315 ± 24 fmol LDL receptors per mg cell protein
Oc1ccc(C2COc3cc(O)ccc3C2O)cc1 (centres unmarked) [Cpd. 7]	low levels of activity	able to inhibit linoleic acid oxidation by compound I as effectively as 25 mM BHT	neither Cpd. 7 nor Cpd. 8 were able to inhibit SLO	increased concentration-dependently	194 ± 46 fmol LDL receptors per mg cell protein	306 ± 70 fmol LDL receptors per mg cell protein	332 ± 46 fmol LDL receptors per mg cell protein
Oc1ccc(C2=Cc3ccc(O)cc3OC2)cc1 [Cpd. 12]	strong LDL protective action (low redox index)	inhibitory activity of Cpd. 7 and Cpd. 8 was greater than of an equimolar amount of Cpd. 12	effective inhibitor of lipoxygenase type-1	–	174 ± 35 fmol LDL receptors per mg cell protein	161 ± 35 fmol LDL receptors per mg cell protein	290 ± 42 fmol LDL receptors per mg cell protein
